Measured values from patent US10787448B2, “Indolizino [3,2-C] quinoline-based fluorescent probe” (SEOUL NATIONAL UNIVERSITY R & DB FOUNDATION, priority 2015, dated 2020).
“Also recorded” adds a separate entry of the source. Read-outs that look alike come from different tables or passages of the source.

Legend:
[1] = in water; cited from earlier work
[2] = Analysis of optical characteristics (absorption, fluorescence emission, quantum yield) in solvents; type: physicochemical; details: for Fluorescence Emission Intensity / Peak emission wavelength λmax em(nm) / Relative fluorescence Emission Intensitynorm: H2O at 2 μM; for Peak emission wavelength λmax em(nm): excited at the longest absorption maxima; for Relative fluorescence Emission Intensitynorm: normalized fluorescence intensity
Method in brief: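 Optical properties of indolizinoquinoline compounds were examined in solvents. A 10 mM DMSO stock was diluted into the solvent, and fluorescence emission spectra were recorded at 20° C. on a JASCO FP-6500 spectrofluorometer. Absorption spectra were taken at room temperature on a Perkin Elmer Lamda 20 UV/VIS spectrometer. Fluorescence quantum yield (Φ) was determined.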

PDEδ [3] = molecular target: T1, PDEδ (Homo sapiens, UniProt O43924); experiment: Confirmation of target protein using FRET; type: binding; details: irradiated with 280-nm light
T1 construct: made in house; host or cells: E. coli
Procedure: Therefore, to confirm whether the fluorescent material is able to selectively bind to a specific protein in a cell, fluorescence of the recombinant PDE and/or indolizino[3,2-c]quinoline compound, which is overexpressed in E. coli cells, followed by isolation and purification, was measured by being irradiated with 280-nm light.

HeLa cells = experiment: Cell permeability: fluorescence imaging and live cell confocal imaging; type: cell-based; details: HeLa cells
Procedure: HeLa cells were seeded in a 96-well plate and incubated for 24 hours. The cells were treated with the indolizino[3,2-c]quinoline compounds, and incubated at 37° C. under a 5% CO2 condition for 30 minutes. After removal of the medium, the cells were washed with 1×DPBS. The washed cells were fixed with 4% formaldehyde at room temperature for 10 minutes, and washed with 1×DPBS. A cell image was screened using an Operetta HTS imaging system (PerkinElmer).
After HeLa cells were seeded to account for 70 to 80% of the area of a confocal dish (SPL life science) and overnight cultured, the indolizino[3,2-c]quinoline compounds (10 μM) prepared by mixing fresh DMEM after removal of the existing DMEM medium were dispensed, and the cells were incubated for 30 minutes to 1 hour at 37° C. Afterward, if needed, LysoTracker (50 nM) was mixed with DMEM to remove the existing medium and then dispensed to the cells, and the cells were incubated for 30 minutes at 37° C. After incubation, without washing, the cells were examined by a confocal laser microscope (Leica TCS SP8 SMD, Leica, Mannheim, Germany). However, when co-stained with a LysoTracker, the cells were washed with DPBS twice before the microscopy. […]

cells [4] = experiment: Co-staining / co-localization with DAPI, MitoTracker or LysoTracker; type: cell-based
cells [5] = experiment: Comparison of fluorescence stability with conventionally developed dyes; type: cell-based
[6] = system: DNA oligomers (48 bp) tetO sequences; experiment: Binding to DNA by fluorescence spectrophotometer; details: hybridized tetO DNA oligomers added, 1 minute incubation
Procedure: Using a fluorescence spectrophotometer, it was confirmed whether the indolizino[3,2-c]quinoline compound of the present invention binds to DNA. First, DNA oligomers (48 bp) used in the experiment are tetO sequences, and the base sequences thereof are as follows.
The same molarities of oligomers were mixed while being heated at 95° C. for 5 minutes and cooled to room temperature for 2 hours to hybridize, the fluorescence of each of the indolizino[3,2-c]quinoline compounds of the present invention was measured, a corresponding equivalent of DNA oligomer was added to a cuvette, and then incubated while blocking light for 1 minute to measure fluorescence again.

PDEδ [7] = molecular target: T1, PDEδ; experiment: Titration using fluorescence polarization; type: binding; details: 0.5 μM compound, PDEδ protein from 0 to 32 μM
Procedure: To confirm whether the indolizino[3,2-c]quinoline compound can bind to a specific intracellular protein, in the presence of 0.5 μM of the indolizino[3,2-c]quinoline compound, titration was performed by increasing the concentration of the PDEδ protein from 0 to 32 μM to measure a polarization degree.

PDEδ [8] = molecular target: T1, PDEδ; experiment: Titration using fluorescence polarization; type: binding; details: Table 9

T1 sequence (O43924 whole entry): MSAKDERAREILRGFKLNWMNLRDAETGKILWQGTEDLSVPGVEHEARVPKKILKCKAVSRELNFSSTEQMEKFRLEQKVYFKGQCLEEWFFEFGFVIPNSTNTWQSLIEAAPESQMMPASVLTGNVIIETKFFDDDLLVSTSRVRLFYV

O=c1cc(C(F)(F)F)c2cc3c4c(c2o1)CCCN4CCC3 [Coumarin 153]
quantum yield of the standard (Φ) [1]: 0.12

O=[N+]([O-])c1ccc(-c2nc3ccccc3c3cc4ccccn4c23)cc1 [IQ 2, 6-(4-nitrophenyl)indolizino[3,2-c]quinoline]
fluorescence (intensity, in words) [2]: did not induce fluorescence
fluorescence change / binding to PDEδ by FRET (PDEδ [3]): low fluorescence intensity

Cc1cccn2c1cc1c3ccccc3nc(-c3ccc([N+](=O)[O-])cc3)c12 [IQ 13, 11-methyl-6-(4-nitrophenyl)indolizino[3,2-c]quinoline]
fluorescence (intensity, in words) [2]: did not induce fluorescence
fluorescence change / binding to PDEδ by FRET (PDEδ [3]): no change in fluorescence

CN(C)c1ccc(-c2nc3ccccc3c3cc4ccccn4c23)cc1 [IQ 36, 4-(indolizino[3,2-c]quinolin-6-yl)-N,N-dimethylaniline]
intracellular molecule recognized (HeLa cells): recognized intracellular RNA
intracellular organelles in which fluorescence is detected (HeLa cells): intensively distributed in cytoplasmic and nucleolus areas
staining pattern compared with conventional dyes (cells [4]): an aspect similar to RNA select for staining RNA; also recorded: stains RNA in a pattern similar to the now currently available Sytoselect
staining pattern compared with conventional dyes (cells [4]; listed as Formula 12): works as a complementary stain with respect to DAPI
fluorescence stability compared with commercially available dyes (cells [5]): superior stability, compared to Sytoselect

COc1ccc(-c2nc3ccccc3c3cc4ccccn4c23)cc1 [compound 6]
Absorption coefficient (cm^−1M^−1) [2]: 6547 cm^−1M^−1
Absorption wavelength λex(nm) [2]: 430 nm
Emission wavelength λem(nm) [2]: 515 nm
Maximum absorption wavelength λmax abs(nm) [2]: 430 nm
λem (nm) ([2]; DMF): 469 nm
λem (nm) ([2]; DMSO): 512 nm
λem (nm) ([2]; EtOH): 465 nm
λem (nm) ([2]; EtOH:CHCl3 = 1:5): 466 nm
λem (nm) ([2]; H2O): 511 nm
Fluorescence Emission Intensity [2]: 231.3
Peak emission wavelength λmax em(nm) [2]: 514.5 nm
λem (nm) ([2]; MC): 467 nm
Fluorescence quantum yield (Φ) ([2]; Rhodamine 6G as a standard (Φ = 0.86 in water)): 0.121
Relative fluorescence Emission Intensitynorm [2]: 0.99
shift of maximum emission wavelength on addition of DNA oligomer [6]: wavelength to longer wavelength
Kd (PDEδ [7]): 729 nM
kmax em(nm) (PDEδ [8]): 515 nm
λabs(nm) (PDEδ [8]): 430 nm

COc1ccc(-c2nc3ccccc3c3cc4ccccn4c23)cc1OC [compound 8]
quantum yield (Φ) ([2]; DW, standard Rhodamine 6G): 0.102
quantum yield (Φ) ([2]; EtOH, standard Coumarin 153): 0.652
Fluorescence Emission Intensity [2]: 171.3
Peak emission wavelength λmax em(nm) [2]: 513 nm
Relative fluorescence Emission Intensitynorm [2]: 0.74
shift of maximum emission wavelength on addition of DNA oligomer [6]: wavelength to longer wavelength
Kd (PDEδ [7]): 1280 nM
kmax em(nm) (PDEδ [8]): 515 nm
λabs(nm) (PDEδ [8]): 430 nm

c1ccc2cc(-c3nc4ccccc4c4cc5ccccn5c34)ccc2c1 [compound 10]
quantum yield (Φ) ([2]; DW, standard Rhodamine 6G): 0.015
quantum yield (Φ) ([2]; EtOH, standard Coumarin 153): 0.350
Fluorescence Emission Intensity [2]: 39.6
Peak emission wavelength λmax em(nm) [2]: 532 nm
Relative fluorescence Emission Intensitynorm [2]: 0.17
change in fluorescence intensity on addition of DNA oligomer [6]: Increase in fluorescence intensity
Kd (PDEδ [7]): 643 nM
kmax em(nm) (PDEδ [8]): 530 nm
λabs(nm) (PDEδ [8]): 430 nm
